Nc1cc(Cl)ccc1[N+](=O)[O-]
solubility (mole fraction)
Conditions	283.15 K	288.15 K	293.15 K	298.15 K	303.15 K	308.15 K	313.15 K	318.15 K	323.15 K
in 2-butanone	0.141	0.149	0.164	0.173	0.187	0.203	0.218	0.234	0.252
in acetone	0.126	0.141	0.152	0.165	0.183	0.2	0.219	0.242	0.262
in acetonitrile	0.0303	0.036	0.0428	0.0519	0.0633	0.0751	0.0945	0.11	0.135
in ethanol	0.0164	0.0184	0.0215	0.0243	0.0273	0.0317	0.0373	0.0441	0.0497
in ethyl acetate	0.0983	0.107	0.117	0.133	0.144	0.158	0.174	0.193	0.24
in isobutanol	0.0116	0.0129	0.0154	0.0185	0.0219	0.0259	0.0308	0.0361	0.0444
in isopropanol	0.0146	0.017	0.0197	0.0232	0.0267	0.0321	0.0372	0.0451	0.0539
in methanol	0.0104	0.0122	0.0142	0.0164	0.019	0.0235	0.027	0.0326	0.0374
in methyl acetate	0.101	0.108	0.12	0.133	0.147	0.162	0.178	0.192	0.214
in n-butanol	0.0182	0.0209	0.0246	0.0283	0.0311	0.0358	0.0426	0.0481	0.0553
in n-propanol	0.0161	0.0184	0.0214	0.0246	0.0284	0.0315	0.0373	0.0452	0.0517
in water	5.45e-06	9.54e-06	1.22e-05	1.77e-05	2.18e-05	2.73e-05	3.53e-05	4.25e-05	4.78e-05

Reference: BigSolDB 2.1
